{"source": "the supplement of paper PMC10307832"}
{"compound": "C1=CC2=NC=CN=C2C=C1/C=C/3\\C(=O)NC(=O)S3 + COc1cccc2cc(-c3nc([C@H]4CC[C@H](C(=O)O)CC4)n4ncnc(N)c34)[nH]c12 [OSI-027] (partner 0.5 µM)", "assay": "relative viability (nuclei count vs DMSO), 5 days (fraction); higher = more cells survive", "details": "first compound 0.02 µM", "how_it_was_run": "(§1)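 A single step with final 0.05% Triton X-100, 1% formaldehyde and 1 ug/ml Hoechst fixed the cells and stained nuclei 5 days after treatment. Lung cancer cell lines in 1536-well plates had been treated by pin tool the day after seeding with one drug alone or a fixed anchor-drug dose plus five library-drug doses (not always all listed) in √10 steps, and nuclei were counted on 4× images. Relative viability is the ratio of nuclei in treated wells to nuclei in vehicle wells, taken as the median of duplicate plates.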"}
{"cell line": "NCI-H1755", "relative viability": 0.712}
{"cell line": "NCI-H2023", "relative viability": 0.423}
{"cell line": "HCC-15", "relative viability": 0.759}
{"cell line": "NCI-H1793", "relative viability": 0.28}
{"cell line": "PC-14", "relative viability": 0.771}
{"cell line": "EKVX", "relative viability": 0.69}
{"cell line": "LC-2-ad", "relative viability": 0.893}
{"cell line": "NCI-H1944", "relative viability": 0.412}
{"cell line": "NCI-H1975", "relative viability": 0.708}
{"cell line": "RERF-LC-KJ", "relative viability": 0.571}
{"cell line": "ABC-1", "relative viability": 0.434}
{"cell line": "NCI-H358", "relative viability": 0.869}
{"cell line": "NCI-H650", "relative viability": 0.519}
{"cell line": "PC-3 [JPC-3]", "relative viability": 0.711}
{"compound": "C1=CC2=NC=CN=C2C=C1/C=C/3\\C(=O)NC(=O)S3 + COc1cccc2cc(-c3nc([C@H]4CC[C@H](C(=O)O)CC4)n4ncnc(N)c34)[nH]c12 [OSI-027] (partner 0.5 µM)", "assay": "relative viability (nuclei count vs DMSO), 5 days (fraction); higher = more cells survive", "details": "first compound 0.06325 µM", "how_it_was_run": "as §1"}
{"cell line": "NCI-H1755", "relative viability": 0.838}
{"cell line": "NCI-H2023", "relative viability": 0.346}
{"cell line": "HCC-15", "relative viability": 0.672}
{"cell line": "NCI-H1793", "relative viability": 0.201}
{"cell line": "PC-14", "relative viability": 0.67}
{"cell line": "EKVX", "relative viability": 0.405}
{"cell line": "LC-2-ad", "relative viability": 0.752}
{"cell line": "NCI-H1944", "relative viability": 0.395}
{"cell line": "NCI-H1975", "relative viability": 0.805}
{"cell line": "RERF-LC-KJ", "relative viability": 0.569}
{"cell line": "ABC-1", "relative viability": 0.509}
{"cell line": "NCI-H358", "relative viability": 0.753}
{"cell line": "NCI-H650", "relative viability": 0.601}
{"cell line": "PC-3 [JPC-3]", "relative viability": 0.777}
{"compound": "C1=CC2=NC=CN=C2C=C1/C=C/3\\C(=O)NC(=O)S3 + COc1cccc2cc(-c3nc([C@H]4CC[C@H](C(=O)O)CC4)n4ncnc(N)c34)[nH]c12 [OSI-027] (partner 0.5 µM)", "assay": "relative viability (nuclei count vs DMSO), 5 days (fraction); higher = more cells survive", "details": "first compound 0.2 µM", "how_it_was_run": "as §1"}
{"cell line": "NCI-H1755", "relative viability": 0.71}
{"cell line": "NCI-H2023", "relative viability": 0.478}
{"cell line": "HCC-15", "relative viability": 0.726}
{"cell line": "NCI-H1793", "relative viability": 0.289}
{"cell line": "PC-14", "relative viability": 0.815}
{"cell line": "EKVX", "relative viability": 0.683}
{"cell line": "LC-2-ad", "relative viability": 0.807}
{"cell line": "NCI-H1944", "relative viability": 0.427}
{"cell line": "NCI-H1975", "relative viability": 0.808}
{"cell line": "RERF-LC-KJ", "relative viability": 0.704}
{"cell line": "ABC-1", "relative viability": 0.509}
{"cell line": "NCI-H358", "relative viability": 0.768}
{"cell line": "NCI-H650", "relative viability": 0.621}
{"cell line": "PC-3 [JPC-3]", "relative viability": 0.783}
{"compound": "C1=CC2=NC=CN=C2C=C1/C=C/3\\C(=O)NC(=O)S3 + COc1cccc2cc(-c3nc([C@H]4CC[C@H](C(=O)O)CC4)n4ncnc(N)c34)[nH]c12 [OSI-027] (partner 0.5 µM)", "assay": "relative viability (nuclei count vs DMSO), 5 days (fraction); higher = more cells survive", "details": "first compound 0.6325 µM", "how_it_was_run": "as §1"}
{"cell line": "NCI-H1755", "relative viability": 0.699}
{"cell line": "NCI-H2023", "relative viability": 0.326}
{"cell line": "HCC-15", "relative viability": 0.641}
{"cell line": "NCI-H1793", "relative viability": 0.265}
{"cell line": "PC-14", "relative viability": 0.804}
{"cell line": "EKVX", "relative viability": 0.683}
{"cell line": "LC-2-ad", "relative viability": 0.757}
{"cell line": "NCI-H1944", "relative viability": 0.385}
{"cell line": "NCI-H1975", "relative viability": 0.619}
{"cell line": "RERF-LC-KJ", "relative viability": 0.606}
{"cell line": "ABC-1", "relative viability": 0.408}
{"cell line": "NCI-H358", "relative viability": 0.623}
{"cell line": "NCI-H650", "relative viability": 0.495}
{"cell line": "PC-3 [JPC-3]", "relative viability": 0.767}
{"compound": "C1=CC2=NC=CN=C2C=C1/C=C/3\\C(=O)NC(=O)S3 + COc1cccc2cc(-c3nc([C@H]4CC[C@H](C(=O)O)CC4)n4ncnc(N)c34)[nH]c12 [OSI-027] (partner 0.5 µM)", "assay": "relative viability (nuclei count vs DMSO), 5 days (fraction); higher = more cells survive", "details": "first compound 2 µM", "how_it_was_run": "as §1"}
{"cell line": "NCI-H1755", "relative viability": 0.575}
{"cell line": "NCI-H2023", "relative viability": 0.161}
{"cell line": "HCC-15", "relative viability": 0.373}
{"cell line": "NCI-H1793", "relative viability": 0.203}
{"cell line": "PC-14", "relative viability": 0.692}
{"cell line": "EKVX", "relative viability": 0.408}
{"cell line": "LC-2-ad", "relative viability": 0.454}
{"cell line": "NCI-H1944", "relative viability": 0.258}
{"cell line": "NCI-H1975", "relative viability": 0.417}
{"cell line": "RERF-LC-KJ", "relative viability": 0.332}
{"cell line": "ABC-1", "relative viability": 0.232}
{"cell line": "NCI-H358", "relative viability": 0.228}
{"cell line": "NCI-H650", "relative viability": 0.269}
{"cell line": "PC-3 [JPC-3]", "relative viability": 0.636}
{"compound": "C1=CC2=NC=CN=C2C=C1/C=C/3\\C(=O)NC(=O)S3 + CC(=O)c1c(C)c2cnc(Nc3ccc(N4CCNCC4)cn3)nc2n(C2CCCC2)c1=O [Palbociclib] (partner 0.5 µM)", "assay": "relative viability (nuclei count vs DMSO), 5 days (fraction); higher = more cells survive", "details": "first compound 0.02 µM", "how_it_was_run": "as §1"}
{"cell line": "NCI-H1755", "relative viability": 0.428}
{"cell line": "NCI-H2023", "relative viability": 0.405}
{"cell line": "HCC-15", "relative viability": 0.708}
{"cell line": "NCI-H1793", "relative viability": 0.289}
{"cell line": "PC-14", "relative viability": 0.492}
{"cell line": "EKVX", "relative viability": 0.384}
{"cell line": "LC-2-ad", "relative viability": 0.463}
{"cell line": "NCI-H1944", "relative viability": 0.287}
{"cell line": "NCI-H1975", "relative viability": 0.465}
{"cell line": "RERF-LC-KJ", "relative viability": 1.04}
{"cell line": "ABC-1", "relative viability": 0.75}
{"cell line": "NCI-H358", "relative viability": 0.147}
{"cell line": "NCI-H650", "relative viability": 0.346}
{"cell line": "PC-3 [JPC-3]", "relative viability": 0.492}
{"compound": "C1=CC2=NC=CN=C2C=C1/C=C/3\\C(=O)NC(=O)S3 + CC(=O)c1c(C)c2cnc(Nc3ccc(N4CCNCC4)cn3)nc2n(C2CCCC2)c1=O [Palbociclib] (partner 0.5 µM)", "assay": "relative viability (nuclei count vs DMSO), 5 days (fraction); higher = more cells survive", "details": "first compound 0.06325 µM", "how_it_was_run": "as §1"}
{"cell line": "NCI-H1755", "relative viability": 0.429}
{"cell line": "NCI-H2023", "relative viability": 0.408}
{"cell line": "HCC-15", "relative viability": 0.715}
{"cell line": "NCI-H1793", "relative viability": 0.296}
{"cell line": "PC-14", "relative viability": 0.539}
{"cell line": "EKVX", "relative viability": 0.428}
{"cell line": "LC-2-ad", "relative viability": 0.455}
{"cell line": "NCI-H1944", "relative viability": 0.289}
{"cell line": "NCI-H1975", "relative viability": 0.683}
{"cell line": "RERF-LC-KJ", "relative viability": 1.12}
{"cell line": "ABC-1", "relative viability": 0.699}
{"cell line": "NCI-H358", "relative viability": 0.135}
{"cell line": "NCI-H650", "relative viability": 0.336}
{"cell line": "PC-3 [JPC-3]", "relative viability": 0.637}
{"compound": "C1=CC2=NC=CN=C2C=C1/C=C/3\\C(=O)NC(=O)S3 + CC(=O)c1c(C)c2cnc(Nc3ccc(N4CCNCC4)cn3)nc2n(C2CCCC2)c1=O [Palbociclib] (partner 0.5 µM)", "assay": "relative viability (nuclei count vs DMSO), 5 days (fraction); higher = more cells survive", "details": "first compound 0.2 µM", "how_it_was_run": "as §1"}
{"cell line": "NCI-H1755", "relative viability": 0.461}
{"cell line": "NCI-H2023", "relative viability": 0.314}
{"cell line": "HCC-15", "relative viability": 0.71}
{"cell line": "NCI-H1793", "relative viability": 0.282}
{"cell line": "PC-14", "relative viability": 0.559}
{"cell line": "EKVX", "relative viability": 0.342}
{"cell line": "LC-2-ad", "relative viability": 0.481}
{"cell line": "NCI-H1944", "relative viability": 0.352}
{"cell line": "NCI-H1975", "relative viability": 0.563}
{"cell line": "RERF-LC-KJ", "relative viability": 1.05}
{"cell line": "ABC-1", "relative viability": 0.726}
{"cell line": "NCI-H358", "relative viability": 0.128}
{"cell line": "NCI-H650", "relative viability": 0.36}
{"cell line": "PC-3 [JPC-3]", "relative viability": 0.566}
{"compound": "C1=CC2=NC=CN=C2C=C1/C=C/3\\C(=O)NC(=O)S3 + CC(=O)c1c(C)c2cnc(Nc3ccc(N4CCNCC4)cn3)nc2n(C2CCCC2)c1=O [Palbociclib] (partner 0.5 µM)", "assay": "relative viability (nuclei count vs DMSO), 5 days (fraction); higher = more cells survive", "details": "first compound 0.6325 µM", "how_it_was_run": "as §1"}
{"cell line": "NCI-H1755", "relative viability": 0.432}
{"cell line": "NCI-H2023", "relative viability": 0.337}
{"cell line": "HCC-15", "relative viability": 0.725}
{"cell line": "NCI-H1793", "relative viability": 0.336}
{"cell line": "PC-14", "relative viability": 0.488}
{"cell line": "EKVX", "relative viability": 0.381}
{"cell line": "LC-2-ad", "relative viability": 0.53}
{"cell line": "NCI-H1944", "relative viability": 0.312}
{"cell line": "NCI-H1975", "relative viability": 0.56}
{"cell line": "RERF-LC-KJ", "relative viability": 0.994}
{"cell line": "ABC-1", "relative viability": 0.662}
{"cell line": "NCI-H358", "relative viability": 0.136}
{"cell line": "NCI-H650", "relative viability": 0.344}
{"cell line": "PC-3 [JPC-3]", "relative viability": 0.561}
{"compound": "C1=CC2=NC=CN=C2C=C1/C=C/3\\C(=O)NC(=O)S3 + CC(=O)c1c(C)c2cnc(Nc3ccc(N4CCNCC4)cn3)nc2n(C2CCCC2)c1=O [Palbociclib] (partner 0.5 µM)", "assay": "relative viability (nuclei count vs DMSO), 5 days (fraction); higher = more cells survive", "details": "first compound 2 µM", "how_it_was_run": "as §1"}
{"cell line": "NCI-H1755", "relative viability": 0.446}
{"cell line": "NCI-H2023", "relative viability": 0.27}
{"cell line": "HCC-15", "relative viability": 0.657}
{"cell line": "NCI-H1793", "relative viability": 0.288}
{"cell line": "PC-14", "relative viability": 0.587}
{"cell line": "EKVX", "relative viability": 0.405}
{"cell line": "LC-2-ad", "relative viability": 0.352}
{"cell line": "NCI-H1944", "relative viability": 0.331}
{"cell line": "NCI-H1975", "relative viability": 0.394}
{"cell line": "RERF-LC-KJ", "relative viability": 1.15}
{"cell line": "ABC-1", "relative viability": 0.645}
{"cell line": "NCI-H358", "relative viability": 0.114}
